Laboratory results taken from paper PMC8288134, “Synthesis, potential antitumor activity, cell cycle analysis, and multitarget mechanisms of novel hydrazones incorporating a 4-methylsulfonylbenzene scaffold: a molecular docking study” (Journal of Enzyme Inhibition and Medicinal Chemistry, 2021).

Columns and labels:
A549/ATCC = assay: NCI antitumor screen (SRB); format: cell-based; settings: Homo sapiens, one dose 10 µM, read-out: Growth inhibition percentage (GI%)
OVCAR-8 = assay: NCI antitumor screen (SRB); format: cell-based; settings: Homo sapiens, one dose 10 µM, read-out: Growth inhibition percentage (GI%)
MOLT-4 = assay: NCI antitumor screen (SRB); format: cell-based; settings: Homo sapiens, one dose 10 µM, read-out: Growth inhibition percentage (GI%)
PC-3 = assay: NCI antitumor screen (SRB); format: cell-based; settings: Homo sapiens, one dose 10 µM, read-out: Growth inhibition percentage (GI%)
HL-60(TB) = assay: cells; format: cell-based, human; settings: Homo sapiens, HL-60, HL-60(TB); one dose 10 µM; read-out: Growth inhibition percentage (GI%)
NCI-H226 = assay: NCI antitumor screen (SRB); format: cell-based; settings: Homo sapiens, one dose 10 µM, read-out: Growth inhibition percentage (GI%)
HT29 = assay: NCI antitumor screen (SRB); format: cell-based; settings: Homo sapiens, HT-29, one dose 10 µM, read-out: Growth inhibition percentage (GI%)
NCI-H522 = assay: NCI antitumor screen (SRB); format: cell-based; settings: Homo sapiens, NCI-H522, read-out: Growth inhibition percentage (GI%)
UACC-257 = assay: NCI antitumor screen (SRB); format: cell-based, human; settings: Homo sapiens; UACC-257; one dose 10 µM; read-out: Growth inhibition percentage (GI%)
SK-MEL-2 = assay: NCI antitumor screen (SRB); format: cell-based; settings: Homo sapiens, SK-MEL-2, read-out: Growth inhibition percentage (GI%)
[1] = system: full panel of 59 cancer cell lines; assay: NCI antitumor screen, full panel; settings: one dose 10 µM
CCRF-CEM = assay: NCI antitumor screen (SRB); format: cell-based; settings: Homo sapiens, one dose 10 µM, read-out: Growth inhibition percentage (GI%)
K-562 = assay: NCI antitumor screen (SRB); format: cell-based; settings: Homo sapiens, K562, read-out: Growth inhibition percentage (GI%)
SK-OV-3 = assay: NCI antitumor screen (SRB); format: cell-based; settings: Homo sapiens, one dose 10 µM, read-out: Growth inhibition percentage (GI%)
T-47D = assay: NCI antitumor screen (SRB); format: cell-based; settings: Homo sapiens, T47D, one dose 10 µM, read-out: Growth inhibition percentage (GI%)
A498 = assay: NCI antitumor screen (SRB); format: cell-based; settings: Homo sapiens, one dose 10 µM, read-out: Growth inhibition percentage (GI%)
UO-31 = assay: NCI antitumor screen (SRB); format: cell-based, human; settings: Homo sapiens; UO-31; one dose 10 µM; read-out: Growth inhibition percentage (GI%)
HOP-62 = assay: NCI antitumor screen (SRB); format: cell-based; settings: Homo sapiens, HOP-62, read-out: Growth inhibition percentage (GI%)
SNB-75 = assay: NCI antitumor screen (SRB); format: cell-based; settings: Homo sapiens, one dose 10 µM, read-out: Growth inhibition percentage (GI%)
HCT-116 = assay: NCI antitumor screen (SRB); format: cell-based; settings: Homo sapiens, read-out: Growth inhibition percentage (GI%)
CAKI-1 = assay: NCI antitumor screen (SRB); format: cell-based; settings: Homo sapiens, one dose 10 µM, read-out: Growth inhibition percentage (GI%)
SR = assay: NCI antitumor screen (SRB); format: cell-based; settings: Homo sapiens, one dose 10 µM, read-out: Growth inhibition percentage (GI%)
U251 = assay: NCI antitumor screen (SRB); format: cell-based; settings: Homo sapiens, U-251, one dose 10 µM, read-out: Growth inhibition percentage (GI%)

| Compound | inhibition at 10 µM (A549/ATCC) | inhibition at 10 µM (MOLT-4) | inhibition at 10 µM (PC-3) | inhibition at 10 µM (HL-60(TB)) | inhibition at 10 µM (NCI-H522) | inhibition at 10 µM (UACC-257) | PCE: positive cytotoxic effect (number of cell lines with GI 10 to 100% / total number of cell lines) [1] | inhibition at 10 µM (CCRF-CEM) | inhibition at 10 µM (K-562) | inhibition at 10 µM (HOP-62) | also measured |
| --- | --- | --- | --- | --- | --- | --- | --- | --- | --- | --- | --- |
| COc1ccc(C=NNC(=O)c2ccc(S(C)(=O)=O)cc2)cc1 [Compound 10, N'-(4-Methoxybenzylidene)-4-(methylsulfonyl)benzohydrazide] | 29.8% | 21.1% | 13.8% | 42.9% | 20.8% | 29% | 11/59 | 10.6% | – | – | inhibition at 10 µM (OVCAR-8): 11.3%; inhibition at 10 µM (NCI-H226): 13.4%; inhibition at 10 µM (HT29): 10.8%; inhibition at 10 µM (SK-MEL-2): 11.8% |
| CS(=O)(=O)c1ccc(C(=O)NN=Cc2cccnc2)cc1 [Compound 5, 4-(Methylsulfonyl)-N'-(pyridin-3-ylmethylene)benzohydrazide] | 10.6% | – | 17.9% | 20.5% | 15.1% | – | 13/59 | 11.1% | 18.8% | 16.5% | inhibition at 10 µM (NCI-H226): 11.9%; inhibition at 10 µM (HT29): 13.3%; inhibition at 10 µM (SK-OV-3): 16.9%; inhibition at 10 µM (T-47D): 13.7%; inhibition at 10 µM (A498): 11.2%; inhibition at 10 µM (UO-31): 16.3% |
| COc1ccc(C=NNC(=O)c2ccc(S(C)(=O)=O)cc2)cc1OC [Compound 21, N'-(3,4-Dimethoxybenzylidene)-4-(methylsulfonyl)benzohydrazide] | – | 34.1% | 11.5% | 45.9% | 15.7% | – | 8/59 | – | 19.1% | – | inhibition at 10 µM (SNB-75): 14.2%; inhibition at 10 µM (HCT-116): 11%; inhibition at 10 µM (CAKI-1): 11% |
| CS(=O)(=O)c1ccc(C(=O)NN=Cc2ccc(F)cc2)cc1 [Compound 8, N'-(4-Fluorobenzylidene)-4-(methylsulfonyl)benzohydrazide] | 11.1% | 23.9% | – | 23.1% | 15.9% | 18.4% | 9/59 | 11.8% | 13.6% | – | inhibition at 10 µM (HCT-116): 10.8%; inhibition at 10 µM (SR): 20.2% |
| CS(=O)(=O)c1ccc(C(=O)NN=Cc2ccccc2)cc1 [Compound 4, N'-Benzylidene-4-(methylsulfonyl)benzohydrazide] | 28.5% | 25.5% | – | 60.3% | 42.1% | 44.2% | 10/59 | – | 11.3% | 12% | inhibition at 10 µM (OVCAR-8): 15.1%; inhibition at 10 µM (U251): 20.4%; inhibition at 10 µM (SK-MEL-2): 21.5% |
| CS(=O)(=O)c1ccc(C(=O)N/N=C/c2ccc(O)cc2)cc1 [Compound 11] | – | 32.5% | 10.9% | 50.5% | 11.7% | – | 5/59 | – | 26.2% | – | – |
| CS(=O)(=O)c1ccc(C(=O)NN=Cc2ccccc2Cl)cc1 [Compound 13, N'-(2-Chlorobenzylidene)-4-(methylsulfonyl)benzohydrazide] | 21.6% | 32.3% | – | 47.7% | – | 35.5% | 10/59 | – | 32.5% | 12.7% | inhibition at 10 µM (SNB-75): 15.1%; inhibition at 10 µM (SK-OV-3): 11.7%; inhibition at 10 µM (T-47D): 12.5%; inhibition at 10 µM (UO-31): 15.7% |
